Assay results taken from US20230265151A1, “GIP/GLP1 CO-AGONIST COMPOUNDS” (priority 2020, published 2023).
Where two headings read alike, the source gives them in different places. *1 amine or outer side, *2 acyl side, *3 side chain or, on linkers, in order; H or OH if unused. Where a SMILES comes first, the peptide text is derived from it. Side-chain parts run from the residue outwards. [ ]: non-standard residue; d: D form. The star is where a group is joined. αMePhe(2-F) = C[C@](N)(Cc1ccccc1F)C(=O)O; γGlu = O=C(O)[C@H](CCC(=O)[*:2])N[*:1]; C14 diacid = O=C(O)CCCCCCCCCCCCC(=O)*; αMeY = C[C@](N)(Cc1ccc(O)cc1)C(=O)O; 4Pal = N[C@@H](Cc1ccncc1)C(=O)O; αMeL = CC(C)C[C@](C)(N)C(=O)O; Orn = NCCC[C@H](N)C(=O)O; AEEA = NCCOCCOCC(=O)O; Aib = CC(C)(N)C(=O)O

Experiments:
Type in all cases: cell-based
[1] = molecular target: hGLP-1R (Homo sapiens, UniProt P43220); assay: Functional cAMP formation (HTRF) in HEK-293 clonal cells expressing hGLP-1R, 0.1% bovine casein, without or with 1.0% human serum albumin; parameters: expressed in transfected cells; details: for EC50: geometric mean
Method in brief: (§1)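 Cells were stimulated with peptide for 30 min at 37° C, then intracellular cAMP was measured by competitive HTRF (665/620 nm ratio) and converted to nM using a cAMP standard curve. Relative EC50 and Emax came from four-parameter logistic fits of percent maximal response against peptide concentration.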

[2] = molecular target: T1, hGIPR (Homo sapiens, UniProt P48546); assay: Functional cAMP formation (HTRF) in HEK-293 clonal cells expressing hGIPR, 0.1% bovine casein, without or with 1.0% human serum albumin; details: for EC50: geometric mean
T1 construct: expressed in transfected cells
T1 sequence (P48546 22-466): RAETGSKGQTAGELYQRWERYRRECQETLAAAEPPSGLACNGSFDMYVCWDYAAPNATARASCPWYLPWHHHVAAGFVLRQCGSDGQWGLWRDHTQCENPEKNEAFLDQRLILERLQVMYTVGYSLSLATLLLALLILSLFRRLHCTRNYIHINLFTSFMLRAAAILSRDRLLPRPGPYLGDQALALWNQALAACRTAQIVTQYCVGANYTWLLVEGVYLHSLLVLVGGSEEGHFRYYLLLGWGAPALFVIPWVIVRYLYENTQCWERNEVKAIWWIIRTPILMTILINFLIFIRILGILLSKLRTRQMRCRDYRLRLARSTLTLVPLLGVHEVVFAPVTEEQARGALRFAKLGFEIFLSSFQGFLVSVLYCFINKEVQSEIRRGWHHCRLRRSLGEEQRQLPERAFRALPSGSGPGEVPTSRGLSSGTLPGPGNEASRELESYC
Method in brief: as §1

[3] = molecular target: T2, hGCGR (Homo sapiens, UniProt P47871); assay: Functional cAMP formation (HTRF) in HEK-293 clonal cells expressing hGCGR, 0.1% bovine casein, without or with 1.0% human serum albumin
T2 construct: expressed in transfected cells
Method in brief: as §1

[4] = 0.1% bovine casein and 1.0% human serum albumin, 37° C., read-out: hGLP-1R EC50, nM (SEM, n)
[5] = HEK293, 0.1% bovine casein and 1.0% human serum albumin, 37° C., percent of maximal response to GLP-1(7-36)NH2, read-out: hGLP-1R Emax, % ± SEM
[6] = HEK293, percent of maximal response to GLP-1(7-36)NH2, 37° C., 0.1% bovine casein, arithmetic mean, read-out: hGLP-1R Emax, % ± SEM
[7] = HEK293, 0.1% bovine casein and 1.0% human serum albumin, 37° C., percent of maximal response to GIP(1-42)NH2, read-out: hGIPR Emax, % ± SEM
[8] = HEK293, percent of maximal response to GIP(1-42)NH2, 37° C., 0.1% bovine casein, arithmetic mean, read-out: hGIPR Emax, % ± SEM
[9] = cAMP, incubated at 37° C., 0.1% bovine casein (no human serum albumin), read-out: hGIPR EC50, nM (SEM, n)
[10] = 0.1% bovine casein and 1.0% human serum albumin, 37° C., geometric mean, read-out: hGCGR EC50, nM (SEM, n)
[11] = cAMP, incubated at 37° C., 0.1% bovine casein (no human serum albumin), geometric mean, read-out: hGCGR EC50, nM (SEM, n)

Sequence of hGLP-1R (P43220 24-463): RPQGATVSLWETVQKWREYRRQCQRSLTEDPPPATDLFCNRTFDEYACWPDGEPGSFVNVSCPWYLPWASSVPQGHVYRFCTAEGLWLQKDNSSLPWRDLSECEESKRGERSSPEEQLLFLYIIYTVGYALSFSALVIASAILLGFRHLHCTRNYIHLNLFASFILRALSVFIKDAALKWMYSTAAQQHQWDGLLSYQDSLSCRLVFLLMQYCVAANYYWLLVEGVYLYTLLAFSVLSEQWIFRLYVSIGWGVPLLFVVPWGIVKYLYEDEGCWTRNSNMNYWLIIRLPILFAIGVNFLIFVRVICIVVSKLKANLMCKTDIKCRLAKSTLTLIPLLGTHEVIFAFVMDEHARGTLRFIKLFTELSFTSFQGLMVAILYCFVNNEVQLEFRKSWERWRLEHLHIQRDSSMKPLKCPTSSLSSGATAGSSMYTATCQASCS
T2 sequence (P47871 26-477): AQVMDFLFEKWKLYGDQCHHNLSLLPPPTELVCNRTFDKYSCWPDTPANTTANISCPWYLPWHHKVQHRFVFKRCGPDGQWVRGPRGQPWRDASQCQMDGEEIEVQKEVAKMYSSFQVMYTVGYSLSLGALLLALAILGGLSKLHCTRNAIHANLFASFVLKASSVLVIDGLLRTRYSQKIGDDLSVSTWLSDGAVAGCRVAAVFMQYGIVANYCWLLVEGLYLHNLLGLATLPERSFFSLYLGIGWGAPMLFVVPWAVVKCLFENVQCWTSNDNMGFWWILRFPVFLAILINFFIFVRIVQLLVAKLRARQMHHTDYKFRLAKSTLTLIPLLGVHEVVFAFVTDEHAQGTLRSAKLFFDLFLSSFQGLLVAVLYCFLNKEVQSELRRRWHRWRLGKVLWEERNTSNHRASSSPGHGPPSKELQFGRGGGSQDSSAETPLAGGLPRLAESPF

CC[C@H](C)[C@H](NC(=O)[C@H](CC(C)C)NC(=O)[C@](C)(Cc1ccc(O)cc1)NC(=O)[C@@H](CCC(=O)O)NC(=O)[C@@H](NC(=O)[C@H](Cc1ccccc1)NC(=O)[C@H](CCC(=O)O)NC(=O)C(C)(C)NC(=O)[C@H](CCC(N)=O)NC(=O)[C@H](C)NC(=O)[C@H](CCCCNC(=O)COCCOCCNC(=O)CC[C@H](NC(=O)CCCCCCCCCOc1ccc(C(=O)O)cc1)C(=O)O)NC(=O)[C@H](CCCN)NC(=O)[C@H](CC(=O)O)NC(=O)[C@H](CC(C)C)NC(=O)[C@](C)(CC(C)C)NC(=O)[C@@H](NC(=O)C(C)(C)NC(=O)[C@H](Cc1ccncc1)NC(=O)[C@H](CC(=O)O)NC(=O)[C@H](CO)NC(=O)[C@@H](NC(=O)[C@](C)(Cc1ccccc1F)NC(=O)[C@@H](NC(=O)CNC(=O)[C@H](CCC(=O)O)NC(=O)C(C)(C)NC(=O)[C@@H](N)Cc1ccc(O)cc1)[C@@H](C)O)[C@@H](C)O)[C@@H](C)CC)[C@@H](C)CC)C(=O)N[C@@H](CCC(=O)O)C(=O)NCC(=O)NCC(=O)N1CCC[C@H]1C(=O)N[C@@H](CO)C(=O)N[C@@H](CO)C(=O)NCC(=O)N[C@@H](C)C(=O)N1CCC[C@H]1C(=O)N1CCC[C@H]1C(=O)N1CCC[C@H]1C(=O)N[C@@H](CO)C(=O)N[C@@H](CCCCNC(=O)COCCOCCNC(=O)CC[C@H](NC(=O)CCCCCCCCCOc1ccc(C(=O)O)cc1)C(=O)O)C(N)=O [Example 362]
Emax ([1]; HEK293, read-out: hGLP-1R Emax, % ± SEM, cAMP, 37° C., 0.1% bovine casein, percent of maximal response to GLP-1(7-36)NH2, arithmetic mean): 109% | EC50 ([1]; hGLP-1R EC50, nM (SEM, n), cAMP, 37° C., 0.1% bovine casein (no human serum albumin)): 0.34 nM | Emax ([2]; HEK293, read-out: hGIPR Emax, % ± SEM, cAMP, 37° C., 0.1% bovine casein and 1.0% human serum albumin, percent of maximal response to GIP(1-42)NH2): 86.7% | EC50 ([2]; hGIPR EC50, nM (SEM, n), cAMP, 37° C., 0.1% bovine casein (no human serum albumin)): 0.0131 nM | EC50 ([3]; hGCGR EC50, nM (SEM, n), cAMP, 37° C., 0.1% bovine casein (no human serum albumin), geometric mean): > 10100 nM | EC50 ([3]; hGCGR EC50, nM (SEM, n), cAMP, 37° C., 0.1% bovine casein and 1.0% human serum albumin, geometric mean (SEM, n)): > 9950 nM

CC[C@H](C)[C@H](NC(=O)[C@H](CC(C)C)NC(=O)[C@](C)(Cc1ccc(O)cc1)NC(=O)[C@@H](CCC(=O)O)NC(=O)[C@@H](NC(=O)[C@H](Cc1ccccc1)NC(=O)[C@H](CCCCNC(=O)COCCOCCNC(=O)COCCOCCNC(=O)CC[C@H](NC(=O)CCCCCCCCCOc1ccc(C(=O)O)cc1)C(=O)O)NC(=O)C(C)(C)NC(=O)[C@H](CCC(N)=O)NC(=O)[C@H](C)NC(=O)[C@H](CCCCNC(=O)COCCOCCNC(=O)COCCOCCNC(=O)CC[C@H](NC(=O)CCCCCCCCCOc1ccc(C(=O)O)cc1)C(=O)O)NC(=O)[C@H](CCCN)NC(=O)[C@H](CC(=O)O)NC(=O)[C@H](CC(C)C)NC(=O)[C@](C)(CC(C)C)NC(=O)[C@@H](NC(=O)C(C)(C)NC(=O)[C@H](Cc1ccc(O)cc1)NC(=O)[C@H](CC(=O)O)NC(=O)[C@H](CO)NC(=O)[C@@H](NC(=O)[C@](C)(Cc1ccccc1F)NC(=O)[C@@H](NC(=O)CNC(=O)[C@H](CCC(=O)O)NC(=O)C(C)(C)NC(=O)[C@@H](N)Cc1ccc(O)cc1)[C@@H](C)O)[C@@H](C)O)[C@@H](C)CC)[C@@H](C)CC)C(=O)N[C@@H](CCC(=O)O)C(=O)NCC(=O)NCC(=O)N1CCC[C@H]1C(=O)N[C@@H](CO)C(=O)N[C@@H](CO)C(=O)NCC(=O)N[C@@H](C)C(=O)N1CCC[C@H]1C(=O)N1CCC[C@H]1C(=O)N1CCC[C@H]1C(=O)N[C@@H](CO)C(N)=O [Example 236]
Emax ([1]; HEK293, read-out: hGLP-1R Emax, % ± SEM, 0.1% bovine casein and 1.0% human serum albumin, 37° C., percent of maximal response to GLP-1(7-36)NH2): 125% | Emax ([1]; HEK293, read-out: hGLP-1R Emax, % ± SEM, percent of maximal response to GLP-1(7-36)NH2, 37° C., 0.1% bovine casein, arithmetic mean): 96.5% | EC50 ([1]; hGLP-1R EC50, nM (SEM, n), 0.1% bovine casein and 1.0% human serum albumin, 37° C.): 32.6 nM | EC50 ([1]; hGLP-1R EC50, nM (SEM, n), cAMP, incubated at 37° C., 0.1% bovine casein (no human serum albumin)): 0.336 nM | Emax ([2]; HEK293, read-out: hGIPR Emax, % ± SEM, 0.1% bovine casein and 1.0% human serum albumin, 37° C., percent of maximal response to GIP(1-42)NH2): 80.5% | EC50 ([2]; hGIPR EC50, nM (SEM, n), cAMP, incubated at 37° C., 0.1% bovine casein (no human serum albumin)): 0.0154 nM | EC50 ([3]; hGCGR EC50, nM (SEM, n), 0.1% bovine casein and 1.0% human serum albumin, 37° C., geometric mean): > 9950 nM | EC50 ([3]; hGCGR EC50, nM (SEM, n), cAMP, incubated at 37° C., 0.1% bovine casein (no human serum albumin), geometric mean): > 9950 nM

CC[C@H](C)[C@H](NC(=O)[C@H](CC(C)C)NC(=O)[C@](C)(Cc1ccc(O)cc1)NC(=O)[C@@H](CCC(=O)O)NC(=O)[C@@H](NC(=O)[C@H](Cc1ccccc1)NC(=O)[C@H](CCC(=O)O)NC(=O)C(C)(C)NC(=O)[C@H](CCC(N)=O)NC(=O)[C@H](C)NC(=O)[C@H](CCCCNC(=O)COCCOCCNC(=O)COCCOCCNC(=O)CC[C@H](NC(=O)CCCCCCCCCCCCC(=O)O)C(=O)O)NC(=O)[C@H](CCCN)NC(=O)[C@H](CC(=O)O)NC(=O)[C@H](CC(C)C)NC(=O)[C@](C)(CC(C)C)NC(=O)[C@@H](NC(=O)[C@H](CO)NC(=O)[C@H](Cc1ccncc1)NC(=O)[C@H](CC(=O)O)NC(=O)[C@H](CO)NC(=O)[C@@H](NC(=O)[C@](C)(Cc1ccccc1F)NC(=O)[C@@H](NC(=O)CNC(=O)[C@H](CCC(=O)O)NC(=O)C(C)(C)NC(=O)[C@@H](N)Cc1ccc(O)cc1)[C@@H](C)O)[C@@H](C)O)[C@@H](C)CC)[C@@H](C)CC)C(=O)N[C@@H](CCC(=O)O)C(=O)NCC(=O)NCC(=O)N[C@@H](CCCCNC(=O)COCCOCCNC(=O)COCCOCCNC(=O)CC[C@H](NC(=O)CCCCCCCCCCCCC(=O)O)C(=O)O)C(N)=O [Example 184] (H-Y[Aib]EGT[αMePhe(2-F)]TSD[4Pal]SI[αMeL]LD[Orn]K([AEEA-AEEA-γGlu-C14 diacid])AQ[Aib]EFI[dE][αMeY]LIEGGK([AEEA-AEEA-γGlu-C14 diacid])-NH2)
EC50 [1, 4]: 119 nM | Emax [1, 5]: 87.8% | Emax [1, 6]: 96.8 ± 12% | EC50 ([1]; cAMP, incubated at 37° C., 0.1% bovine casein (no human serum albumin), read-out: hGLP-1R EC50, nM (SEM, n)): 1.82 nM | EC50 ([2]; 0.1% bovine casein and 1.0% human serum albumin, 37° C., read-out: hGIPR EC50, nM (SEM, n)): 2.46 nM | Emax [2, 7]: 81.2% | Emax [2, 8]: 95.2 ± 1.13% | EC50 [2, 9]: 0.0354 nM | EC50 [3, 10]: > 9950 nM | EC50 [3, 11]: > 9950 nM

CC[C@H](C)[C@H](NC(=O)[C@H](CC(C)C)NC(=O)[C@](C)(Cc1ccc(O)cc1)NC(=O)[C@@H](CCC(=O)O)NC(=O)[C@@H](NC(=O)[C@](C)(Cc1ccccc1)NC(=O)[C@H](CCC(=O)O)NC(=O)C(C)(C)NC(=O)[C@H](CCC(N)=O)NC(=O)[C@H](C)NC(=O)[C@H](CCCCNC(=O)COCCOCCNC(=O)COCCOCCNC(=O)CC[C@H](NC(=O)CCCCCCCCCCCCC(=O)O)C(=O)O)NC(=O)[C@H](CCCN)NC(=O)[C@H](CC(=O)O)NC(=O)[C@H](CC(C)C)NC(=O)[C@](C)(CC(C)C)NC(=O)[C@@H](NC(=O)[C@H](CO)NC(=O)[C@H](Cc1ccncc1)NC(=O)[C@H](CC(=O)O)NC(=O)[C@H](CO)NC(=O)[C@@H](NC(=O)[C@](C)(Cc1ccccc1)NC(=O)[C@@H](NC(=O)CNC(=O)[C@H](CCC(=O)O)NC(=O)C(C)(C)NC(=O)[C@@H](N)Cc1ccc(O)cc1)[C@@H](C)O)[C@@H](C)O)[C@@H](C)CC)[C@@H](C)CC)C(=O)N[C@@H](CCC(=O)O)C(=O)NCC(=O)NCC(=O)N[C@@H](CCCCNC(=O)COCCOCCNC(=O)COCCOCCNC(=O)CC[C@H](NC(=O)CCCCCCCCCCCCC(=O)O)C(=O)O)C(=O)N[C@@H](CO)C(=O)N[C@@H](CO)C(=O)NCC(=O)N[C@@H](C)C(=O)N1CCC[C@H]1C(=O)N1CCC[C@H]1C(=O)N1CCC[C@H]1C(=O)N[C@@H](CO)C(N)=O [Example 47]
EC50 [1, 4]: 1670 nM | Emax [1, 5]: 134% | Emax [1, 6]: 87.1 ± 14.1% | Emax [2, 7]: 85.6% | Emax [2, 8]: 89.8 ± 1.2% | EC50 [2, 9]: 0.0138 nM | EC50 [3, 10]: > 9950 nM | EC50 [3, 11]: > 9950 nM
